Results on 25 compounds are retold here after patent US11046680B1, “Heteroaryl-substituted triazoles as APJ receptor agonists” (priority 2016, dated 2021).

This assay concerns the target human APJ receptor (Homo sapiens (Human), UniProt P35414). Briefly: biochemical. Type of assay: biochemical. The note with it: [35S]GTPγS binding, CHO membranes expressing human APJ receptor; read-out: Activity hAPJ SPA EC50 IP. Summed up: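 Membranes of a stable CHO line carrying human APJ (pFLAG-CMV-3) were used in a GTPγS binding format; buffer GDP, MgCl2 and NaCl were optimized, and plates were read after 90 min at RT.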
On the technique in general: GTPγS is a poorly hydrolysed GTP analogue; its binding reports G protein activation.

Sequence of human APJ receptor (P35414 whole entry): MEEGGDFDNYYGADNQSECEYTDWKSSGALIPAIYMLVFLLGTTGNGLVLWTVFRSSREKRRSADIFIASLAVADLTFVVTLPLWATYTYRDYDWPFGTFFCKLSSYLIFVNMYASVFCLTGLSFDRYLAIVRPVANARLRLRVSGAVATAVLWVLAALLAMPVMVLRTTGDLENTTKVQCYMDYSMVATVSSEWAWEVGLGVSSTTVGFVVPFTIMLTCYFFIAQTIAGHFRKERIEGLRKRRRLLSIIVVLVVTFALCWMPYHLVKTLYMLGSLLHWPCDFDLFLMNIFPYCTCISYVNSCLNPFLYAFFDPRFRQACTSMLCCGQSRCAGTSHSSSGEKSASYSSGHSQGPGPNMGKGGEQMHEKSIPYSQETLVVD

For the compound `COc1cccc(OC)c1-n1c(NS(=O)(=O)[C@@H](C)[C@H](OC)c2ncc(C)cn2)nnc1-c1ccn(C(F)F)n1` [Example 203.0, (1R,2S)-N-(5-(1-(difluoromethyl)-1H-pyrazol-3-yl)-4-(2,6-dimethoxyphenyl)-4H-1,2,4-triazol-3-yl)-1-methoxy-1-(5-methyl-2-pyrimidinyl)-2-propanesulfonamide], the concentration for a half-maximal effect (EC50) – broadly, the concentration giving half of the maximal effect – worked out at 2.1 nM.
The result for `CCO[C@@H](c1ncc(Cl)cn1)[C@H](C)S(=O)(=O)Nc1nnc(-c2ccn(C)n2)n1-c1c(OC)cccc1OC` (single isomer, unassigned) [Example 353.0, (1S,2S)-1-(5-chloropyrimidin-2-yl)-N-(4-(2,6-dimethoxyphenyl)-5-(1-methyl-1H-pyrazol-3-yl)-4H-1,2,4-triazol-3-yl)-1-ethoxypropane-2-sulfonamide or (1R,2R)-1-(5-chloropyrimidin-2-yl)-N-(4-(2,6-dimethoxyphenyl)-5-(1-methyl-1H-pyrazol-3-yl)-4H-1,2,4-triazol-3-yl)-1-ethoxypropane-2-sulfonamide] reads 0.22 nM.
In the case of `Cc1cnc([C@@H](C)[C@H](C)S(=O)(=O)Nc2nnc(-c3ccn(C)n3)n2-c2c(F)cccc2F)nc1` [Example 226.0, (2S,3R)-N-(4-(2,6-difluorophenyl)-5-(1-methyl-1H-pyrazol-3-yl)-4H-1,2,4-triazol-3-yl)-3-(5-methyl-2-pyrimidinyl)-2-butanesulfonamide], the EC50 is 11 nM.
The result for `COc1cccc(OC)c1-n1c(NS(=O)(=O)[C@H](C)Cc2ncc(F)cn2)nnc1-c1ncccn1` (single isomer, unassigned) [Example 58.0, (R)-N-(4-(2,6-dimethoxyphenyl)-5-(pyrimidin-2-yl)-4H-1,2,4-triazol-3-yl)-1-(5-fluoropyrimidin-2-yl)propane-2-sulfonamide or (S)-N-(4-(2,6-dimethoxyphenyl)-5-(pyrimidin-2-yl)-4H-1,2,4-triazol-3-yl)-1-(5-fluoropyrimidin-2-yl)propane-2-sulfonamide] reads 17 nM; that for `O=S(=O)(CCc1ccc(Cl)cc1)Nc1nnc(-c2cccs2)n1-c1ccccc1OC(F)F` [Example 240.0, 2-(4-chlorophenyl)-N-(4-(2-(difluoromethoxy)phenyl)-5-(thiophen-2-yl)-4H-1,2,4-triazol-3-yl)ethanesulfonamide], 1310 nM; that for `COC[C@@H](C)n1c(NS(=O)(=O)[C@@H](C)[C@H](OC)c2ncc(Cl)cn2)nnc1-c1ccn(C)n1` [Example 531.0, (1R,2S)-1-(5-chloro-2-pyrimidinyl)-1-methoxy-N-(4-((2R)-1-methoxy-2-propanyl)-5-(1-methyl-1H-pyrazol-3-yl)-4H-1,2,4-triazol-3-yl)-2-propanesulfonamide], 50 nM.
For `COc1cccc(OC)c1-n1c(NS(=O)(=O)[C@H](C)[C@@H](C)c2ncc(C)cn2)nnc1-c1n[nH]c2ccccc12` [Example 431.0, (2R,3S)-N-(4-(2,6-dimethoxyphenyl)-5-(1H-indazol-3-yl)-4H-1,2,4-triazol-3-yl)-3-(5-methylpyrimidin-2-yl)butane-2-sulfonamide], the concentration giving a half-maximal response (EC50) amounted to 14 nM.
Next, `COc1ccccc1-n1c(NS(=O)(=O)Cc2ccc(Cl)cc2)nnc1-c1cccs1` [Example 385.0, 1-(4-Chlorophenyl)-N-(4-(2-methoxyphenyl)-5-(thiophen-2-yl)-4H-1,2,4-triazol-3-yl)methanesulfonamide]: greater than 12500 nM; `COc1cccc(OC)c1-n1c(NS(=O)(=O)[C@@H](C)[C@H](OC)c2ncc(Cl)cn2)nnc1-c1cncc(C)n1` [Example 214.0, (1R,2S)-1-(5-chloro-2-pyrimidinyl)-N-(4-(2,6-dimethoxyphenyl)-5-(6-methyl-2-pyrazinyl)-4H-1,2,4-triazol-3-yl)-1-methoxy-2-propanesulfonamide]: 0.4 nM; `COc1ccc(C(=O)O)cc1-n1c(NS(=O)(=O)Cc2ccc(Cl)cc2)nnc1-c1cccs1` [Example 384.0, 3-(3-((4-Chlorophenyl)methylsulfonamido)-5-(thiophen-2-yl)-4H-1,2,4-triazol-4-yl)-4-methoxybenzoic acid]: greater than 12500 nM.
Next, `CC(C)O[C@@H](c1ncc(Cl)cn1)[C@H](C)S(=O)(=O)Nc1nnc(-c2ccn(C)n2)n1C(C)C` [Example 537.0, (1S,2S)-1-(5-chloro-2-pyrimidinyl)-N-(5-(1-methyl-1H-pyrazol-3-yl)-4-(2-propanyl)-4H-1,2,4-triazol-3-yl)-1-(2-propanyloxy)-2-propanesulfonamide]: 27 nM.
Next, `COc1ccccc1-n1c(NS(=O)(=O)[C@@H](C)[C@H](C)c2ncc(F)cn2)nnc1-c1ccn(C)n1` [Example 269.0, (2S,3R)-3-(5-fluoro-2-pyrimidinyl)-N-(4-(2-methoxyphenyl)-5-(1-methyl-1H-pyrazol-3-yl)-4H-1,2,4-triazol-3-yl)-2-butanesulfonamide]: 8.7 nM.
Consider `COc1cccc(OC)c1-n1c(NS(=O)(=O)C[C@H](O)c2ccc(Cl)cc2)nnc1-c1ccn(C)n1` (single isomer, unassigned) [Example 375.0, (R)-2-(4-Chlorophenyl)-N-(4-(2,6-dimethoxyphenyl)-5-(1-methyl-1H-pyrazol-3-yl)-4H-1,2,4-triazol-3-yl)-2-hydroxyethanesulfonamide or (R)-2-(4-chlorophenyl)-N-(4-(2,6-dimethoxyphenyl)-5-(1-methyl-1H-pyrazol-3-yl)-4H-1,2,4-triazol-3-yl)-2-hydroxyethanesulfonamide], for which the EC50 came out at 5.9 nM.
The result for `COc1ccc(C#N)cc1-n1c(NS(=O)(=O)CCc2ccc(Cl)cc2)nnc1-c1cccs1` [Example 247.0, 2-(4-chlorophenyl)-N-(4-(5-cyano-2-methoxyphenyl)-5-(thiophen-2-yl)-4H-1,2,4-triazol-3-yl)ethanesulfonamide] reads 166 nM; that for `COc1cnc([C@@H](C)[C@H](C)S(=O)(=O)Nc2nnc(-c3ccn(C)n3)n2-c2c(OC)cccc2OC)cn1` [Example 287.0, (2S,3R)-N-(4-(2,6-dimethoxyphenyl)-5-(1-methyl-1H-pyrazol-3-yl)-4H-1,2,4-triazol-3-yl)-3-(5-methoxy-2-pyrazinyl)-2-butanesulfonamide], 0.42 nM; that for `COc1cccc(OC)c1-n1c(NS(=O)(=O)[C@@H](C)[C@H](OC)c2ncc(C)cn2)nnc1-c1n[nH]c2ccccc12` [Example 411.0], 58 nM.
Next, “(2R,3S)-N-(4-(2,6-dimethoxyphenyl)-5-(1-methyl-1H-pyrazol-3-yl)-4H-1,2,4-triazol-3-yl)-3-(5-methyl-2-pyrazinyl)-2-butanesulfonamide and (2S,3R)-N-(4-(2,6-dimethoxyphenyl)-5-(1-methyl-1H-pyrazol-3-yl)-4H-1,2,4-triazol-3-yl)-3-(5-methyl-2-pyrazinyl)-2-butanesulfonamide [Example 279.0]”: 2.8 nM.
The result for `COc1cccc(OC)c1-n1c(NS(=O)(=O)[C@H](C)[C@@H](C)c2cnc(C)cn2)nnc1-c1ccn(C)n1` [Example 281.0, (2R,3S)-N-(4-(2,6-dimethoxyphenyl)-5-(1-methyl-1H-pyrazol-3-yl)-4H-1,2,4-triazol-3-yl)-3-(5-methyl-2-pyrazinyl)-2-butanesulfonamide] reads 84 nM.
Take `COc1ccc([C@@H](OC)[C@H](C)S(=O)(=O)Nc2nnc(-c3ccn(C)n3)n2-c2c(OC)ncnc2OC)nc1` [Example 455.0, (1R,2S)-N-(4-(4,6-dimethoxy-5-pyrimidinyl)-5-(1-methyl-1H-pyrazol-3-yl)-4H-1,2,4-triazol-3-yl)-1-methoxy-1-(5-methoxy-2-pyridinyl)-2-propanesulfonamide]: the concentration giving a half-maximal response (EC50) worked out at 5.7 nM.
Next, `COc1ccc(Br)cc1-n1c(NS(=O)(=O)CCc2ccc(Cl)cc2)nnc1-c1cccs1` [Example 133.0, N-(4-(5-Bromo-2-methoxyphenyl)-5-(thiophen-2-yl)-4H-1,2,4-triazol-3-yl)-2-(4-chlorophenyl)ethanesulfonamide]: 363 nM; “(R)-N-(4-(2,6-dimethoxyphenyl)-5-(1-methyl-1H-pyrazol-4-yl)-4H-1,2,4-triazol-3-yl)-1-(5-fluoropyrimidin-2-yl)propane-2-sulfonamide and (R)-N-(4-(2,6-dimethoxyphenyl)-5-(1-methyl-1H-pyrazol-4-yl)-4H-1,2,4-triazol-3-yl)-1-(5-fluoropyrimidin-2-yl)propane-2-sulfonamide [Example 40.0]”: 5.2 nM; `COc1cccc(OC)c1-n1c(NS(=O)(=O)[C@H](C)[C@@H](C)c2ncc(C)cn2)nnc1-c1csc(C)n1` (stereo in doubt) [Example 2.0, (2R,3S)-N-(4-(2,6-dimethoxyphenyl)-5-(2-methylthiazol-4-yl)-4H-1,2,4-triazol-3-yl)-3-(5-methylpyrimidin-2-yl)butane-2-sulfonamide]: 0.32 nM.
Next, `Cc1cnc([C@H](OC(C)C)[C@H](C)S(=O)(=O)Nc2nnc(-c3ccn(C)n3)n2-c2c(F)cccc2F)nc1` [Example 227.0, (1S,2S)-N-(4-(2,6-difluorophenyl)-5-(1-methyl-1H-pyrazol-3-yl)-4H-1,2,4-triazol-3-yl)-1-(1-methylethoxy)-1-(5-methyl-2-pyrimidinyl)-2-propanesulfonamide]: 1.6 nM; `COc1ccc(S(C)(=O)=O)cc1-n1c(NS(=O)(=O)CCc2ccc(F)cc2)nnc1-c1cccs1` [Example 358.0, 2-(4-Fluorophenyl)-N-(4-(2-methoxy-5-(methylsulfonyl)phenyl)-5-(thiophen-2-yl)-4H-1,2,4-triazol-3-yl)ethanesulfonamide]: 34 nM; `CCc1nc(-c2nnc(NS(=O)(=O)CCc3ccc(F)cc3C#N)n2-c2c(OC)cccc2OC)cs1` [Example 154.0, 2-(2-cyano-4-fluorophenyl)-N-(4-(2,6-dimethoxyphenyl)-5-(2-ethylthiazol-4-yl)-4H-1,2,4-triazol-3-yl)ethanesulfonamide]: 62 nM.
